Laboratory results reported in ChEMBL document CHEMBL1201862, “PubChem BioAssay data set” (2004).
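Method: 48-hour compound exposure of cells in 96-well plates, five concentrations, linear interpolation of endpoints. Abbreviation: GI50, concentration required for 50% inhibition of growth.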 The source made the active and inactive calls. Rule as the data show it: active = GI50 up to about 1.1 µM and inactive = higher.

Columns and labels:
Test in all cases: NCI anticancer screen, dose series, 48 h
CAKI-1 = test system: CAKI-1
EKVX = test system: EKVX
HCC 2998 = test system: HCC 2998
HOP-62 = test system: HOP-62
HT-29 = test system: HT-29
IGROV-1 = test system: IGROV-1
K562 = test system: K562
LOX IMVI = test system: LOX IMVI
M14 = test system: M14
MDA-MB-231 = test system: MDA-MB-231
NCI-H460 = test system: NCI-H460
SF-295 = test system: SF-295
SK-MEL-2 = test system: SK-MEL-2
SN12C = test system: SN12C
SNB-75 = test system: SNB-75
SR = test system: SR
SW-620 = test system: SW-620
U-251 = test system: U-251
UACC-257 = test system: UACC-257
HL-60 = test system: HL-60

Measured: GI50

COc1ccccc1NC(=S)N/N=C1\C(=O)Nc2ccccc21
inactive: CAKI-1 > 100 µM | EKVX 86.3 µM | HCC 2998 > 100 µM | HOP-62 > 100 µM | HT-29 > 100 µM | IGROV-1 > 100 µM | K562 > 100 µM | LOX IMVI > 100 µM | M14 > 100 µM | MDA-MB-231 > 100 µM | NCI-H460 > 100 µM | SF-295 > 100 µM | SK-MEL-2 > 100 µM | SN12C > 100 µM | SNB-75 58.9 µM | SR > 100 µM | SW-620 > 100 µM | U-251 > 100 µM | UACC-257 > 100 µM

CC1(C)COC(c2cccc(C(=O)c3ccccc3)c2)=N1
inactive: CAKI-1 46.7 µM | EKVX 34.9 µM | HCC 2998 57.9 µM | HL-60 18.6 µM | HOP-62 > 100 µM | HT-29 33.1 µM | IGROV-1 > 100 µM | K562 36.2 µM | LOX IMVI 38.6 µM | MDA-MB-231 33.4 µM | NCI-H460 59.4 µM | SF-295 40.7 µM | SK-MEL-2 > 100 µM | SN12C 32 µM | SR 32.3 µM | SW-620 > 100 µM | U-251 70 µM | UACC-257 26.2 µM

COc1cc(S(=O)(=O)Nc2nc(-c3ccc(N4C(=O)C(CC(=O)O)SC4c4cccs4)cc3)cs2)ccc1Cl (stereo not drawn)
inactive: CAKI-1 55.5 µM | HCC 2998 27 µM | HL-60 31 µM | HOP-62 54 µM | HT-29 > 100 µM | IGROV-1 27.1 µM | K562 39 µM | LOX IMVI 20.3 µM | M14 > 100 µM | MDA-MB-231 81.1 µM | NCI-H460 > 100 µM | SF-295 > 100 µM | SK-MEL-2 27.8 µM | SN12C 30.3 µM | SNB-75 17.2 µM | SR 44.9 µM | SW-620 28.9 µM | U-251 42.6 µM | UACC-257 41.9 µM

O=c1oc(C(C(F)(F)F)C(F)(F)F)nc2ccccc12
inactive: CAKI-1 > 100 µM | EKVX > 100 µM | HCC 2998 > 100 µM | HL-60 > 100 µM | HOP-62 > 100 µM | HT-29 > 100 µM | IGROV-1 > 100 µM | K562 > 100 µM | LOX IMVI > 100 µM | M14 > 100 µM | MDA-MB-231 > 100 µM | NCI-H460 > 100 µM | SF-295 > 100 µM | SK-MEL-2 > 100 µM | SR > 100 µM | SW-620 > 100 µM | U-251 > 100 µM | UACC-257 > 100 µM

O=C(O)CCCc1nc2c(n1Cc1ccccc1)C(=O)c1ccccc1C2=O
inactive: CAKI-1 > 100 µM | EKVX 31.6 µM | HCC 2998 56.2 µM | HL-60 29.1 µM | IGROV-1 59.3 µM | K562 42.7 µM | LOX IMVI 40.4 µM | M14 3.72 µM | MDA-MB-231 47.9 µM | NCI-H460 34.8 µM | SF-295 25.8 µM | SK-MEL-2 14.9 µM | SN12C 36.9 µM | SNB-75 > 10 µM | SR 44.7 µM | SW-620 40.6 µM | U-251 54.6 µM | UACC-257 25 µM

C=C1c2[nH]c3ccccc3c2C2C(CC)C1CCN2C (stereo not drawn)
inactive: CAKI-1 > 100 µM | EKVX 28.4 µM | HCC 2998 18.5 µM | HL-60 49.1 µM | HOP-62 > 100 µM | HT-29 27.8 µM | IGROV-1 15.2 µM | LOX IMVI 49.7 µM | M14 19.3 µM | MDA-MB-231 48.4 µM | NCI-H460 82 µM | SF-295 55.8 µM | SK-MEL-2 > 100 µM | SN12C 98.4 µM | SR 34.8 µM | SW-620 > 100 µM | U-251 79.3 µM | UACC-257 26 µM

CCSCCC(N)C(=O)O (stereo not drawn)
inactive: EKVX > 100 µM | HCC 2998 > 100 µM | HL-60 > 100 µM | HOP-62 > 100 µM | HT-29 > 100 µM | IGROV-1 > 100 µM | K562 > 100 µM | LOX IMVI > 100 µM | M14 > 100 µM | MDA-MB-231 > 100 µM | NCI-H460 > 100 µM | SF-295 > 100 µM | SK-MEL-2 > 100 µM | SN12C > 100 µM | SNB-75 > 100 µM | SR > 100 µM | SW-620 > 100 µM | U-251 > 100 µM | UACC-257 > 100 µM

O=C1c2c[nH]nc2C(c2ccccc2)N1c1ccccc1 (stereo not drawn)
inactive: CAKI-1 > 10 µM | EKVX > 10 µM | HCC 2998 > 10 µM | HL-60 > 10 µM | HOP-62 > 10 µM | HT-29 > 10 µM | IGROV-1 > 10 µM | LOX IMVI > 10 µM | M14 > 10 µM | MDA-MB-231 > 10 µM | NCI-H460 > 10 µM | SF-295 > 10 µM | SK-MEL-2 > 10 µM | SN12C > 10 µM | SNB-75 > 10 µM | SR > 10 µM | SW-620 > 10 µM | U-251 > 10 µM | UACC-257 > 10 µM

COc1ccc(/N=N/c2c(C)c(C#N)c(=S)n(C3OC(COC(C)=O)C(OC(C)=O)C(OC(C)=O)C3OC(C)=O)c2C)cc1 (stereo not drawn)
inactive: CAKI-1 > 100 µM | HCC 2998 > 100 µM | HL-60 > 100 µM | HOP-62 64.3 µM | HT-29 > 100 µM | IGROV-1 > 100 µM | K562 > 100 µM | LOX IMVI > 100 µM | M14 90.6 µM | MDA-MB-231 21.7 µM | NCI-H460 > 100 µM | SF-295 57.5 µM | SN12C > 100 µM | SNB-75 16.1 µM | SR > 100 µM | SW-620 > 100 µM | U-251 8.09 µM | UACC-257 > 100 µM

OCCN(CCO)c1ccc2c(c1)Cc1ccccc1-2
inactive: CAKI-1 10.3 µM | EKVX 43.1 µM | HCC 2998 64.3 µM | HL-60 41.7 µM | HOP-62 73.5 µM | HT-29 18.8 µM | K562 34 µM | LOX IMVI 29.9 µM | M14 32.2 µM | MDA-MB-231 34 µM | NCI-H460 19.7 µM | SF-295 88.3 µM | SK-MEL-2 26.7 µM | SN12C 52.1 µM | SR 29.6 µM | SW-620 64.4 µM | U-251 49.3 µM | UACC-257 31 µM

COc1cc2c(c(OC)c1OC)C(=O)[C@@H]1[C@H]2N1C(N)=O
inactive: CAKI-1 > 100 µM | EKVX > 100 µM | HCC 2998 68.4 µM | HL-60 > 100 µM | HOP-62 > 100 µM | HT-29 > 100 µM | IGROV-1 94.8 µM | K562 > 100 µM | LOX IMVI > 100 µM | M14 > 100 µM | MDA-MB-231 > 100 µM | NCI-H460 98.2 µM | SF-295 > 100 µM | SN12C > 100 µM | SNB-75 66.2 µM | SR > 100 µM | SW-620 > 100 µM | U-251 47 µM | UACC-257 > 100 µM
